ChEMBL document CHEMBL1122254, “Sulfonyliminoimidazolidines. A new class of oral hypoglycemic agents. 1. 1-[[p-[2-(acylamino)ethyl]phenyl]sulfonyl]-2-iminoimidazolidines” (1983)

Assays:
Type in all cases: functional
[1] = tested on: Rattus norvegicus; experiment: Hypoglycemic activity by lowering blood glucose in normal rats by 50% after oral administration.
[2] = tested on: Rattus norvegicus; experiment: Hypoglycemic activity by lowering blood glucose in normal rats by 20% after oral administration.
[3] = tested on: Rattus norvegicus; experiment: Hypoglycemic activity by lowering blood glucose in streptozotocin-diabetic rats by 20% after oral administration.
[4] = tested on: Rattus norvegicus; experiment: Compound evaluated for hypoglycemic activity by lowering blood glucose in normal rats by 50% after oral administration (highest dose tested)
[5] = tested on: Rattus norvegicus; experiment: Compound evaluated for hypoglycemic activity by lowering blood glucose in streptozotocin-diabetic rats by 20% after oral administration (highest dose tested)
[6] = tested on: Rattus norvegicus; experiment: Compound evaluated for hypoglycemic activity by lowering blood glucose in streptozotocin-diabetic rats by 20% after oral administration
[7] = tested on: Rattus norvegicus; experiment: Compound evaluated for hypoglycemic activity by lowering blood glucose in streptozotocin-diabetic rats by 20% after oral administration; Inactive(less than 10% blood sugar decrease)

| Structure (SMILES) | ED50 [1] [µmol/kg] | ED20 [2] [mmol/kg] | also measured |
| --- | --- | --- | --- |
| C=C(C)C(=O)NCCc1ccc(S(=O)(=O)N2CCN(C3CCCCC3)C2=N)cc1 | 220 | 0.024 | – |
| CCOCC(=O)NCCc1ccc(S(=O)(=O)N2CCN(C3CCCCC3)C2=N)cc1 | 150 | 0.044 | – |
| C[S+]([O-])CCC(=O)NCCc1ccc(S(=O)(=O)N2CCN(C3CCCCC3)C2=N)cc1 (stereo not drawn) | 200 | 0.056 | ED20 [3]: 0.86 mmol/kg |
| CSCCC(=O)NCCc1ccc(S(=O)(=O)N2CCN(C3CCCCC3)C2=N)cc1 | 200 | 0.053 | – |
| N=C1N(C2CCCCC2)CCN1S(=O)(=O)c1ccc(CCNC(=S)NC2CCCCC2)cc1 | – | 0.16 | ED50 [4]: > 820 µmol/kg |
| COCCC(=O)NCCc1ccc(S(=O)(=O)N2CCN(C3CCCCC3)C2=N)cc1 | 220 | 0.033 | – |
| CN(C)CC(=O)NCCc1ccc(S(=O)(=O)N2CCN(C3CCCCC3)C2=N)cc1 | 180 | 0.057 | – |
| CCCSCC(=O)NCCc1ccc(S(=O)(=O)N2CCN(C3CCCCC3)C2=N)cc1 | 550 | 0.1 | – |
| CSCC(=O)NCCc1ccc(S(=O)(=O)N2CCN(C3CCCCC3)C2=N)cc1 | 190 | 0.081 | – |
| C=CC(=O)NCCc1ccc(S(=O)(=O)N2CCN(C3CCCCC3)C2=N)cc1 | 210 | 0.042 | – |
| CCSCC(=O)NCCc1ccc(S(=O)(=O)N2CCN(C3CCCCC3)C2=N)cc1 | 200 | 0.055 | ED20 [3]: 0.57 mmol/kg |
| C/C=C\C(=O)NCCc1ccc(S(=O)(=O)N2CCN(C3CCCCC3)C2=N)cc1 | 38 | 0.0038 | – |
| C=CCCC(=O)NCCc1ccc(S(=O)(=O)N2CCN(C3CCCCC3)C2=N)cc1 | 15 | 0.0069 | ED20 [3]: 0.36 mmol/kg |
| CC(=O)NCCc1ccc(S(=O)(=O)N2CCN(C3CCCCC3)C2=N)cc1 | 240 | 0.038 | – |
| CCOC(=O)NCCc1ccc(S(=O)(=O)N2CCN(C3CCCCC3)C2=N)cc1 | 170 | 0.035 | – |
| N=C1N(C2CCCCC2)CCN1S(=O)(=O)c1ccc(CCNC(=O)c2cccnc2)cc1 | 160 | 0.034 | ED20 [5]: > 0.22 mmol/kg |
| CCCCOC(=O)NCCc1ccc(S(=O)(=O)N2CCN(C3CCCCC3)C2=N)cc1 | 890 | 0.079 | ED20 [3]: 0.89 mmol/kg |
| N=C1N(C2CCCCC2)CCN1S(=O)(=O)c1ccc(CCNC(=O)CN)cc1 | – | 0.39 | ED20 [3]: 0.62 mmol/kg |
| CC(C(=O)NCCc1ccc(S(=O)(=O)N2CCN(C3CCCCC3)C2=N)cc1)N(C)C (stereo not drawn) | 62 | 0.024 | – |
| Cc1cc(C(=O)NCCc2ccc(S(=O)(=O)N3CCN(C4CCCCC4)C3=N)cc2)no1 | 130 | 0.022 | ED20 [3]: 0.14 mmol/kg |
| CCCCCC/N=C(\S)NCCc1ccc(S(=O)(=O)N2CCN(C3CCCCC3)C2=N)cc1 | – | 0.3 | ED50 [4]: > 610 µmol/kg |
| N=C1N(C2CCCCC2)CCN1S(=O)(=O)c1ccc(CCNC(=O)c2ccc(Cl)c(Cl)c2)cc1 | – | 0.37 | ED50 [4]: > 760 µmol/kg |
| Cc1cnc(C(=O)NCCc2ccc(S(=O)(=O)N3CCN(C4CCCCC4)C3=N)cc2)cn1 | 100 | 0.01 | ED20 [5]: > 0.61 mmol/kg |
| CSc1ccccc1C(=O)NCCc1ccc(S(=O)(=O)N2CCN(C3CCCCC3)C2=N)cc1 | 620 | 0.064 | – |

| Structure (SMILES) | ED50 [1] [µmol/kg] | ED20 [2] [mmol/kg] | also measured |
| --- | --- | --- | --- |
| COc1ccc(C(=O)NCCc2ccc(S(=O)(=O)N3CCN(C4CCCCC4)C3=N)cc2)cc1OC | 780 | 0.066 | – |
| Cc1ccccc1C(=O)NCCc1ccc(S(=O)(=O)N2CCN(C3CCCCC3)C2=N)cc1 | – | 0.022 | ED50 [4]: > 850 µmol/kg |
| COc1ccccc1C(=O)NCCc1ccc(S(=O)(=O)N2CCN(C3CCCCC3)C2=N)cc1 | – | 0.093 | ED50 [4]: > 830 µmol/kg |
| CCCOCC(=O)NCCc1ccc(S(=O)(=O)N2CCN(C3CCCCC3)C2=N)cc1 | 350 | 0.1 | – |
| COc1cccc(C(=O)NCCc2ccc(S(=O)(=O)N3CCN(C4CCCCC4)C3=N)cc2)c1 | 380 | 0.062 | ED20 [6]: 0.31 mmol/kg |
| N=C1N(C2CCCCC2)CCN1S(=O)(=O)c1ccc(CCNC(=S)Nc2ccccc2)cc1 | 630 | 0.063 | – |
| CCCC(=O)NCCc1ccc(S(=O)(=O)N2CCN(C3CCCCC3)C2=N)cc1 | 83 | 0.024 | ED20 [6]: 0.52 mmol/kg |
| CC(C)CC(=O)NCCc1ccc(S(=O)(=O)N2CCN(C3CCCCC3)C2=N)cc1 | 150 | 0.046 | – |
| COc1ccc(Cl)cc1C(=O)NCCc1ccc(S(=O)(=O)N2CCN(C3CCCCC3)C2=N)cc1 | – | 0.12 | ED50 [4]: > 770 µmol/kg |
| N=C1N(C2CCCCC2)CCN1S(=O)(=O)c1ccc(CCNC(=O)Oc2ccccc2)cc1 | > 850 | 0.042 | – |
| N=C1N(C2CCCCC2)CCN1S(=O)(=O)c1ccc(CCNC(=O)CCN)cc1 | 370 | 0.065 | ED20 [3]: 0.76 mmol/kg |
| N=C1N(C2CCCCC2)CCN1S(=O)(=O)c1ccc(CCNC(=O)CCC2CCC2)cc1 | 200 | 0.052 | – |
| CCCCNC(=O)NCCc1ccc(S(=O)(=O)N2CCN(C3CCCCC3)C2=N)cc1 | 330 | 0.067 | – |
| CCCCN(C)C(=O)NCCc1ccc(S(=O)(=O)N2CCN(C3CCCCC3)C2=N)cc1 | 320 | 0.054 | – |
| C/C=C(/C)C(=O)NCCc1ccc(S(=O)(=O)N2CCN(C3CCCCC3)C2=N)cc1 | 17 | 0.0035 | – |
| C/C=C/C(=O)NCCc1ccc(S(=O)(=O)N2CCN(C3CCCCC3)C2=N)cc1 | 9.6 | 0.0028 | ED20 [3]: 0.18 mmol/kg |
| N=C1N(C2CCCCC2)CCN1S(=O)(=O)c1ccc(CCNC(=O)C2CC=CCC2)cc1 (stereo not drawn) | 15 | 0.0044 | ED20 [3]: 0.39 mmol/kg |
| COc1ccc(C(=O)NCCc2ccc(S(=O)(=O)N3CCN(C4CCCCC4)C3=N)cc2)cc1 | 830 | 0.064 | – |
| CCCCC(=O)NCCc1ccc(S(=O)(=O)N2CCN(C3CCCCC3)C2=N)cc1 | 120 | 0.035 | – |
| N=C1N(C2CCCCC2)CCN1S(=O)(=O)c1ccc(CCNC(=O)c2cnccn2)cc1 | 480 | 0.12 | ED20 [5]: > 0.22 mmol/kg |
| N=C1N(C2CCCCC2)CCN1S(=O)(=O)c1ccc(CCNC(=O)C(N)c2ccccc2)cc1 (stereo not drawn) | 76 | 0.029 | ED20 [7]: > 0.18 mmol/kg |
| CCS(=O)(=O)CC(=O)NCCc1ccc(S(=O)(=O)N2CCN(C3CCCCC3)C2=N)cc1 | 530 | 0.11 | ED20 [6]: 0.83 mmol/kg |
| N=C1N(C2CCCCC2)CCN1S(=O)(=O)c1ccc(CCNC(=S)NC2CCCC2)cc1 | 210 | 0.05 | – |
| N=C1N(C2CCCCC2)CCN1S(=O)(=O)c1ccc(CCNC(=O)/C=C/c2ccccc2)cc1 | – | 0.11 | ED50 [4]: > 630 µmol/kg |

| Structure (SMILES) | ED50 [1] [µmol/kg] | ED20 [2] [mmol/kg] | also measured |
| --- | --- | --- | --- |
| CCCC/N=C(\S)NCCc1ccc(S(=O)(=O)N2CCN(C3CCCCC3)C2=N)cc1 | 210 | 0.015 | – |
| N=C1N(C2CCCCC2)CCN1S(=O)(=O)c1ccc(CCNC(=O)Nc2ccccc2)cc1 | – | 0.85 | – |
| CCC/C=C/C(=O)NCCc1ccc(S(=O)(=O)N2CCN(C3CCCCC3)C2=N)cc1 | 22 | 0.009 | ED20 [3]: 0.81 mmol/kg |
| CC/N=C(\S)NCCc1ccc(S(=O)(=O)N2CCN(C3CCCCC3)C2=N)cc1 | 140 | 0.016 | – |
| C/N=C(\S)NCCc1ccc(S(=O)(=O)N2CCN(C3CCCCC3)C2=N)cc1 | 240 | 0.031 | – |
| CCC(CC)C(=O)NCCc1ccc(S(=O)(=O)N2CCN(C3CCCCC3)C2=N)cc1 | – | 0.098 | ED50 [4]: > 890 µmol/kg |
| CC1(C(=O)NCCc2ccc(S(=O)(=O)N3CCN(C4CCCCC4)C3=N)cc2)CC=CCC1 (stereo not drawn) | 170 | 0.053 | – |
| N=C1N(C2CCCCC2)CCN1S(=O)(=O)c1ccc(CCNC(=O)c2ccco2)cc1 | 160 | 0.013 | ED20 [3]: 0.22 mmol/kg |
| N=C1N(C2CCCCC2)CCN1S(=O)(=O)c1ccc(CCNC(=O)c2ccccc2Cl)cc1 | 230 | 0.023 | – |
| N=C1N(C2CCCCC2)CCN1S(=O)(=O)c1ccc(CCNC(=O)c2cccs2)cc1 | 170 | 0.022 | – |
| CC(N)C(=O)NCCc1ccc(S(=O)(=O)N2CCN(C3CCCCC3)C2=N)cc1 (stereo not drawn) | 160 | 0.059 | ED20 [3]: 0.46 mmol/kg |
| CC1=CCC(C(=O)NCCc2ccc(S(=O)(=O)N3CCN(C4CCCCC4)C3=N)cc2)CC1 (stereo not drawn) | 910 | 0.11 | – |
| CC(C)/C=C/C(=O)NCCc1ccc(S(=O)(=O)N2CCN(C3CCCCC3)C2=N)cc1 | 34 | 0.0096 | – |
| C=C(C(=O)NCCc1ccc(S(=O)(=O)N2CCN(C3CCCCC3)C2=N)cc1)c1ccccc1 | 48 | 0.014 | ED20 [3]: 0.96 mmol/kg |
| N=C1N(C2CCCCC2)CCN1S(=O)(=O)c1ccc(CCNC=O)cc1 | 260 | 0.053 | – |
| N=C1N(C2CCCCC2)CCN1S(=O)(=O)c1ccc(CCNC(=O)c2cncnc2)cc1 | – | 0.2 | ED20 [5]: > 0.59 mmol/kg; ED50 [4]: > 590 µmol/kg |
| N=C1N(C2CCCCC2)CCN1S(=O)(=O)c1ccc(CCNC(=O)CCNc2ccccc2)cc1 | – | 0.24 | ED20 [3]: 0.8 mmol/kg |
| CC(Nc1ccccc1)C(=O)NCCc1ccc(S(=O)(=O)N2CCN(C3CCCCC3)C2=N)cc1 (stereo not drawn) | 200 | 0.06 | ED20 [3]: 0.4 mmol/kg |
| N=C1N(C2CCCCC2)CCN1S(=O)(=O)c1ccc(CCNC(=O)C2CC2)cc1 | 150 | 0.034 | – |
| N=C1N(C2CCCCC2)CCN1S(=O)(=O)c1ccc(CCNC(=O)CNc2ccccc2)cc1 | 320 | 0.064 | ED20 [3]: 0.4 mmol/kg |
| CC[S+]([O-])CC(=O)NCCc1ccc(S(=O)(=O)N2CCN(C3CCCCC3)C2=N)cc1 (stereo not drawn) | 240 | 0.074 | ED20 [3]: 0.85 mmol/kg |
| COc1ccc(Cl)cc1C(=O)NCCc1ccc(S(=O)(=O)NC(=O)NC2CCCCC2)cc1 [GLYBURIDE] | 20 | 0.004 | ED20 [7]: > 0.5 mmol/kg |
